Results reported in US10231954B2, “Neurodegenerative therapies” (LYTIX BIOPHARMA AS, priority 2014, dated 2019).
Like-named read-outs stand apart in the source and are kept apart here.

Experiments:
Format in all cases: biochemical
[1] = molecular target: T1, ASK1 (Homo sapiens, UniProt Q99683); assay: Kinase profiling ASK1; settings: for remaining activity at 100 µM: read-out: residual kinase activity, ASK1
T1 sequence (Q99683 1-1374): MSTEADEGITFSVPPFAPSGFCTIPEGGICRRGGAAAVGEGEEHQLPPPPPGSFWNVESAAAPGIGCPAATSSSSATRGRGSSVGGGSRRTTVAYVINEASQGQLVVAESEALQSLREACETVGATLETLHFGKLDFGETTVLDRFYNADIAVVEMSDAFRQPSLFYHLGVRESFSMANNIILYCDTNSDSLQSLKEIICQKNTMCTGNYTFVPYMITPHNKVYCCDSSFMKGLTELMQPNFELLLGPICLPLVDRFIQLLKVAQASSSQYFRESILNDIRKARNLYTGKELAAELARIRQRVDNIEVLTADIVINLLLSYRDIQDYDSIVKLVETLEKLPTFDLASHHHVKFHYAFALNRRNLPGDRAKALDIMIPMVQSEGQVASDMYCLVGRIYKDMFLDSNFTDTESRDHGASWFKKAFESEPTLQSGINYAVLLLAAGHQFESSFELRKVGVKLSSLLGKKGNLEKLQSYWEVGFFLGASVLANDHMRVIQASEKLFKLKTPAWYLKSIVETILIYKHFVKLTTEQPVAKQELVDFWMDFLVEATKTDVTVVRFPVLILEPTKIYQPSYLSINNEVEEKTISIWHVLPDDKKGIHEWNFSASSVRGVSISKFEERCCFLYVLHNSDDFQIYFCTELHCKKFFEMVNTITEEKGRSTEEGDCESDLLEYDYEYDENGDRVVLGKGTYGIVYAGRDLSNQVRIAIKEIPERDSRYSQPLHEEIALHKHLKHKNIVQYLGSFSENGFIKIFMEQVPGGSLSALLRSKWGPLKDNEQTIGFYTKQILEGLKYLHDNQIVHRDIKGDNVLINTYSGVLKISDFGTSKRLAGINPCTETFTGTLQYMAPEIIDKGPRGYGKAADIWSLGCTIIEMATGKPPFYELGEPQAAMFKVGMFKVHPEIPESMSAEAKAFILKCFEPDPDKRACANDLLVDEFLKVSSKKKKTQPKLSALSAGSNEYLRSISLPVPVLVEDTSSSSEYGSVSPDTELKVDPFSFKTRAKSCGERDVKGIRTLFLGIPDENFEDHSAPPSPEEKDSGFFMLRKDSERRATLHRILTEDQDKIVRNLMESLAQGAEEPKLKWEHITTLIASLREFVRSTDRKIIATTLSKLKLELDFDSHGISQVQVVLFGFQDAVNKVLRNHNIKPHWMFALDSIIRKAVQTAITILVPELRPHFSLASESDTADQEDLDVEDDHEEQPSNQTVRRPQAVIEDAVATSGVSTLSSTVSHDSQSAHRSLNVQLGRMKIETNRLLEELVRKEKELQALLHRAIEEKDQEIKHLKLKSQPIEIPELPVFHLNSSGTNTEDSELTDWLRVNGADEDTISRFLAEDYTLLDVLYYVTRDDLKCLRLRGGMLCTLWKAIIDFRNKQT
Source text: (§1) Any value less that 25 is considered to be highly significant inhibition.

[2] = molecular target: OSR1 (Homo sapiens, UniProt O95747); assay: Kinase profiling OSR1; settings: for remaining activity at 100 µM: read-out: residual kinase activity, OSR1
Chain of OSR1 (O95747 whole entry): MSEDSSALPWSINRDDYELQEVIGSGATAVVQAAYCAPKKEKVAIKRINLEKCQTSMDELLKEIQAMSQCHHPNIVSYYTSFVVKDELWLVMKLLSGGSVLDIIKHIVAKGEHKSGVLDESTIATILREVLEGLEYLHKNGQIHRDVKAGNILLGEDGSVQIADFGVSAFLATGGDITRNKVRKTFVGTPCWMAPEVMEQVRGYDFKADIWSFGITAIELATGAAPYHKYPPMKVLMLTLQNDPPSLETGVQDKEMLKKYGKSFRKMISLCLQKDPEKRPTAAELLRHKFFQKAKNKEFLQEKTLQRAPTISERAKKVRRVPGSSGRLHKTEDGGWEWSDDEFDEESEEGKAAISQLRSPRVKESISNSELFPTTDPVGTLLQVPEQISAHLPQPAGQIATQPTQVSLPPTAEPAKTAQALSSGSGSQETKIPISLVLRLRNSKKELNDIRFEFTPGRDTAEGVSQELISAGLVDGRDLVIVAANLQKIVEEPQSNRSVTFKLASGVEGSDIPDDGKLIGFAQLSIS
Source text: as §1

[3] = molecular target: DYRK1A (Homo sapiens, UniProt Q13627); assay: Determination of IC50 values against DYRK1a; settings: average of duplicate; 10 concentrations 100 μM to 0.003 μM; read-out: IC 50 against DYRK1a
Experimental: The kinase assay was carried out using Multidrop 384's at room temperature in a total assay volume of 25.5 μl. To plates containing 0.5 μl of compounds, DMSO controls or acid blanks, 15 μl of an enzyme mix containing the DYRK1a enzyme and peptide/protein substrate in buffer was added. Compounds were pre-incubated in the presence of the enzyme and peptide/protein substrate for 5 minutes before initiation of the reaction by addition of 10 μl of ATP (final concentration selected for each kinase at 5, 20 or 50 μM). Assays were carried out for 30 minutes at room temperature before termination by the addition of 5 μl orthophosphoric acid. The assay plates were then harvested onto P81 Unifilter Plates by a Packard Harvester (wash buffer is 50 mM orthophosphoric acid) and dried in air. The dry Unifilter plates were then sealed by the addition of MicroScint O and counted in Packard Topcount NXT scintillation counters.

[4] = molecular target: T2, EPH-B2 (Homo sapiens, UniProt P29323); assay: Kinase profiling EPH-B2; settings: for remaining activity at 100 µM: read-out: residual kinase activity, EPH-B2
T2 sequence (P29323 19-1055): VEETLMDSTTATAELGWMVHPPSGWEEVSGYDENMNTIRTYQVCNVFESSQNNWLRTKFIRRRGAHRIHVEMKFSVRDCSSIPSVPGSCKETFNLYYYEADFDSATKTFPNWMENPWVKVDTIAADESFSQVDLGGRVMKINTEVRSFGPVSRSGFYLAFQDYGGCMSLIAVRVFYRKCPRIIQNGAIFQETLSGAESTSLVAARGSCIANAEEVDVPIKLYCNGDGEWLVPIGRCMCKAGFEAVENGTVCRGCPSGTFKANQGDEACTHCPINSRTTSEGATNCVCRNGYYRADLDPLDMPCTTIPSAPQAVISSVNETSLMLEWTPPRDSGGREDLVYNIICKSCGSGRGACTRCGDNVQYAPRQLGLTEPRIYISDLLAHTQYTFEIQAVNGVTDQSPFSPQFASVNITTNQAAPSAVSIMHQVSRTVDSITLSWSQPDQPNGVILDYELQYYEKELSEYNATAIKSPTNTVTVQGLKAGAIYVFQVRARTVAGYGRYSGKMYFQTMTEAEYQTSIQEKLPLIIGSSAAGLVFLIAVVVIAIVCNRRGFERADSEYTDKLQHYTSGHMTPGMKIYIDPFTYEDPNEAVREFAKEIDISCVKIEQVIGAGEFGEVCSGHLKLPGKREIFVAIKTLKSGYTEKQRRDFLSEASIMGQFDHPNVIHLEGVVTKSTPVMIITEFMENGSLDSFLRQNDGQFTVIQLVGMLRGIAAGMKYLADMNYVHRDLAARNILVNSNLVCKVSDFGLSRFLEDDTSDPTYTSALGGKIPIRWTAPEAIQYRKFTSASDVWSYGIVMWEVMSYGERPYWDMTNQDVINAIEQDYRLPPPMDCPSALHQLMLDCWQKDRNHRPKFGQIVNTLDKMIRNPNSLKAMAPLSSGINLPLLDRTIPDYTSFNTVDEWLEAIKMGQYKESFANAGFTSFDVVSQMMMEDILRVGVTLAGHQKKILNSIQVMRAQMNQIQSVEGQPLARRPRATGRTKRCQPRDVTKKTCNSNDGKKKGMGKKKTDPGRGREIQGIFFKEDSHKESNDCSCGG
Source text: as §1

[5] = molecular target: IRR (Homo sapiens, UniProt P14616); assay: Kinase profiling IRR; settings: for remaining activity at 100 µM: read-out: residual kinase activity, IRR
Chain of IRR (P14616 27-1297, species assumed): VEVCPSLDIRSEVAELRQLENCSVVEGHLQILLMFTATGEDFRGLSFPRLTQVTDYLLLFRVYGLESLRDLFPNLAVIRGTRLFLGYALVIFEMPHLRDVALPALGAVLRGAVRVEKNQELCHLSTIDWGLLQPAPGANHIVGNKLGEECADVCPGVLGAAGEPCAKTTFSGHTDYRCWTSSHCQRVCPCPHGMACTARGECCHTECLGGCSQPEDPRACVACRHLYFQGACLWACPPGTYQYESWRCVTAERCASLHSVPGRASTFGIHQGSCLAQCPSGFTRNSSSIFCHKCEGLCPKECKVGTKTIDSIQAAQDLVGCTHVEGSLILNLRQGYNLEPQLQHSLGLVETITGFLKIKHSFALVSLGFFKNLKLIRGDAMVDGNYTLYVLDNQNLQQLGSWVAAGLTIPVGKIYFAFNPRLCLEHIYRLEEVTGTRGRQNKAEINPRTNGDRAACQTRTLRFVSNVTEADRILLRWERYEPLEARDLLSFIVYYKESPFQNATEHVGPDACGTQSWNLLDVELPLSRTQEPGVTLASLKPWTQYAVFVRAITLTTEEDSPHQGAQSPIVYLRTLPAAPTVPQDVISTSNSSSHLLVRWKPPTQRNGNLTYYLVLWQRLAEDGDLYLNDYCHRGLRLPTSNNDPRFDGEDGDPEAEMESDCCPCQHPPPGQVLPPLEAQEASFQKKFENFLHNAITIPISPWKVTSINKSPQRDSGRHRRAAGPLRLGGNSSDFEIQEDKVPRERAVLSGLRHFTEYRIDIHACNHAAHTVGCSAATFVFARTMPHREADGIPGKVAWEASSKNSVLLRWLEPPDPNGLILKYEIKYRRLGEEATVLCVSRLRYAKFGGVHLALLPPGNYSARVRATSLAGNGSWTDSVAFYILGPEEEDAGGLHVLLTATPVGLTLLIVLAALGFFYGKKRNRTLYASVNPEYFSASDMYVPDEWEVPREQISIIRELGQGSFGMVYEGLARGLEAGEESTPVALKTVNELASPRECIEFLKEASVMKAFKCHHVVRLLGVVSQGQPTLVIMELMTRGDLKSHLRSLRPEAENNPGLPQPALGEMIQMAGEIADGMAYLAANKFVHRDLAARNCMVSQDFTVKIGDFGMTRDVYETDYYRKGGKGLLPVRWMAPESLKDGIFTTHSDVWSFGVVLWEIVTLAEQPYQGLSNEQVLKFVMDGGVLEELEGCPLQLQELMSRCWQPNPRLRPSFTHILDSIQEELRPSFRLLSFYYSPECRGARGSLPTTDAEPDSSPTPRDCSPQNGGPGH
Source text: as §1

[6] = 100 micromolar inhibitor concentration, 100 is no change
[7] = 100 micromolar inhibitor, 100 = no change

For `CC(=O)Nc1nc2cc(O)ccc2s1` [Compound 01-66, N-(5-hydroxybenzo[d]thiazol-2-yl)acetamide], the remaining activity at 100 µM [1] was 70%, the remaining activity at 100 µM [2] was 95% and the IC50 [3] was 800 nM. The remaining activity at 100 µM [4] was 70% and the remaining activity at 100 µM [5] was 30%.
For `CC(=O)Nc1nc2ccc(O)cc2s1` [Compound 01-71], the remaining activity at 100 µM [1, 6] was 53%, the remaining activity at 100 µM [2, 6] was 78% and the IC50 [3] was 28100 nM. The remaining activity at 100 µM [4, 6] was 59% and the remaining activity at 100 µM [5, 6] was 34%.
In the case of `CC(=O)Nc1nc2ccc(C(F)(F)F)cc2s1` [Compound 01-90], the remaining activity at 100 µM [1, 6] is reported as 35%, the remaining activity at 100 µM [2, 6] is reported as 75% and the IC50 [3] is reported as 1100 nM. For the same molecule, the remaining activity at 100 µM [4, 6] was 38% and the remaining activity at 100 µM [5, 6] was 49%.
In the case of `CC(=O)Nc1nc2ccc(C#N)cc2s1` [Compound 01-94], the remaining activity at 100 µM [1, 6] is reported as 18%, the remaining activity at 100 µM [2, 6] is reported as 79% and the IC50 [3] is reported as 1300 nM. The remaining activity at 100 µM [4, 6] was 42% and the remaining activity at 100 µM [5, 6] was 42%.
In the case of `CC(=O)Nc1cccc(NC(=O)c2nc3ccc(O)cc3s2)c1` [Compound 03-07, N-(3-acetamidophenyl)-6-hydroxybenzo[d]thiazole-2-carboxamide], the remaining activity at 100 µM [1, 7] is reported as 86%, the remaining activity at 100 µM [2, 7] is reported as 87% and the remaining activity at 100 µM [4, 7] is reported as 110%. It also gave a remaining activity at 100 µM [5, 7] of 75%.
`O=C(Nc1nc2cc(O)ccc2s1)c1ccncc1` [Compound 03-11] was tested, and the “residual kinase activity, ASK1” value [1, 6] was 79, the “residual kinase activity, OSR1” value [2, 6] was 90 and the “residual kinase activity, EPH-B2” value [4, 6] was 89. The “residual kinase activity, IRR” value [5, 6] was 86.
For `O=C(Nc1nc2ccc(O)cc2s1)c1ccccn1` [Compound 03-12], the “residual kinase activity, ASK1” value [1, 6] was 70, the “residual kinase activity, OSR1” value [2, 6] was 59 and the “residual kinase activity, EPH-B2” value [4, 6] was 103. For the same molecule, the “residual kinase activity, IRR” value [5, 6] was 82.
For `O=C(Nc1nc2cc(O)ccc2s1)c1ccccn1` [Compound 03-13], the “residual kinase activity, ASK1” value [1, 6] was 88, the “residual kinase activity, OSR1” value [2, 6] was 97 and the “residual kinase activity, EPH-B2” value [4, 6] was 72. The “residual kinase activity, IRR” value [5, 6] was 78.
Molecule `COc1ccc2sc(NC(C)=O)nc2c1` [Compound 03-21] has a remaining activity at 100 µM [1, 6] of 97%, a remaining activity at 100 µM [2, 6] of 119% and an IC50 [3] of 400 nM. For the same molecule, the remaining activity at 100 µM [4, 6] was 96% and the remaining activity at 100 µM [5, 6] was 47%.
In the case of `CC(=O)Nc1nc2ccccc2s1` [Compound 03-32], the “residual kinase activity, ASK1” value [1, 6] is reported as 66, the “residual kinase activity, OSR1” value [2, 6] is reported as 112 and the “residual kinase activity, EPH-B2” value [4, 6] is reported as 116. The “residual kinase activity, IRR” value [5, 6] was 63.
`O=C(Nc1nc2cc(O)ccc2s1)c1cccnc1` [Compound 03-33] was tested, and the “residual kinase activity, ASK1” value [1, 6] was 51, the “residual kinase activity, OSR1” value [2, 6] was 109 and the “residual kinase activity, EPH-B2” value [4, 6] was 99. For the same molecule, the “residual kinase activity, IRR” value [5, 6] was 51.
In the case of `O=C(Nc1nc2ccc(O)cc2s1)c1ccccc1` [Compound 03-60], the “residual kinase activity, ASK1” value [1, 6] is reported as 12, the “residual kinase activity, OSR1” value [2, 6] is reported as 82 and the “residual kinase activity, EPH-B2” value [4, 6] is reported as 78. For the same molecule, the “residual kinase activity, IRR” value [5, 6] was 31.
`CC(=O)Nc1nc2cc(C(F)(F)F)ccc2s1` [Compound 03-73] gave a remaining activity at 100 µM [1, 6] of 83%, a remaining activity at 100 µM [2, 6] of 113% and an IC50 [3] of 26500 nM. It also gave a remaining activity at 100 µM [4, 6] of 98% and a remaining activity at 100 µM [5, 6] of 61%.
In the case of `CC(=O)Nc1nc2cc(C)ccc2s1` [Compound 03-76], the “residual kinase activity, ASK1” value [1, 6] is reported as 23, the “residual kinase activity, OSR1” value [2, 6] is reported as 116 and the “residual kinase activity, EPH-B2” value [4, 6] is reported as 108. The “residual kinase activity, IRR” value [5, 6] was 66.
`CC(=O)Nc1nc2cc(F)ccc2s1` [Compound 03-77] was tested, and the remaining activity at 100 µM [1, 6] was 54%, the remaining activity at 100 µM [2, 6] was 109% and the IC50 [3] was 3900 nM. For the same molecule, the remaining activity at 100 µM [4, 6] was 114% and the remaining activity at 100 µM [5, 6] was 57%.
In the case of `CC(=O)Nc1nc2ccc(F)cc2s1` [Compound 03-94], the IC50 [3] is reported as 23600 nM.
With `O=C(Nc1nc2ccc(O)cc2s1)c1ccncc1` [Compound 08-42] the “residual kinase activity, ASK1” value [1, 6] was 37, the “residual kinase activity, OSR1” value [2, 6] was 72 and the “residual kinase activity, EPH-B2” value [4, 6] was 99. The “residual kinase activity, IRR” value [5, 6] was 71.
In the case of `O=C(Nc1nc2ccc(O)cc2s1)c1cccnc1` [Compound 08-44], the “residual kinase activity, ASK1” value [1, 6] is reported as 18, the “residual kinase activity, OSR1” value [2, 6] is reported as 51 and the “residual kinase activity, EPH-B2” value [4, 6] is reported as 91. The “residual kinase activity, IRR” value [5, 6] was 45.
`CC(=O)Nc1nc2ccc([N+](=O)[O-])cc2s1` [Compound 13-10] was tested, and the IC50 [3] was 700 nM.
